Reference: patent US4318826A, “Carbonylation catalysts” (Exxon Research & Engineering Co., priority 1980, dated 1982)
Like-named read-outs stand apart in the source and are kept apart here.

Key:
[1] = Example 7: effect of cocatalyst on production of methyl acetate from CH3 OH; settings: 175° C.
[2] = Example 8 / Table II: effect of catalyst on carbonylation of methanol to methyl acetate; settings: CH3 I 8.0 mmole, 175° C., 1000 psi; for % Selectivity: additional product dimethyl ether
[3] = Table III: effect of cocatalyst on carbonylation of methanol to methyl acetate
[4] = Procedure: This conversion is run at elevated pressures, preferably from 1,500 to 3,000 psi. Reaction temperatures will range from 50° C. to 200° C., with a range of 100° C. to 150° C. preferred. Ratio of H2 to CO used will vary with reaction conditions; preferably a 1 to 1 ratio is maintained. The catalyst concentration will range from 0.01 to 20% based on the weight feed, with 0.05 to 10 % preferred.
30 ml. of hexene-1, 20 ml. of benzene, and 0.3 gm. […] The bomb was heated to 140° C. and held until the reaction was complete.

[5] = Example 11: hydroformylation of propylene; settings: 133 °C.
Procedure: Reaction Conditions: 1000 psig Total pressure, CO/H2 (50/50) mixture), 60 ml benzene as solvent, 0.30-0.45 moles propylene, 0.5 mmoles catalyst (based on Rh).

[6] = catalyst 2.0 mmole, 16-19 hours (Co(C5 H7 O2)3: 67)
[7] = catalyst 1.0 mmole, 18-21 hours
[8] = cocatalyst 8.0 mmole, 175° C., 1000 psi, CH3 I 18 hr, CH3 CH2 I 19 hr, C6 H5 I 90 hr
[9] = cocatalyst 8.0 mmole, 1000 psi CO, CH3 I 18 hours, CH3 CH2 I 19 hours, C6 H5 I 90 hours
[10] = cocatalyst 4.0 mmole, 4000 psi CO, 4 hours
[11] = cocatalyst 8.0 mmole, 3.25 hr, 175° C., 4000 psi CO
[12] = cocatalyst 16.0 mmole, 4.25 hr, 175° C., 4000 psi CO

With `II` [Example I2, iodine] as the compound, how does the methyl acetate produced (head is a drawing) ([1]; cocatalyst 2.0 mmole, 4000 psi CO, 4 hours) read?
Its methyl acetate produced (head is a drawing) is 5.2 mL.

With `CC(=O)[CH-]C(C)=O.CC(=O)[CH-]C(C)=O.CC(=O)[CH-]C(C)=O.[Co+3]` [Co(C5 H7 O2)3] as the compound, how does the “% Conversion” value [2, 6] read?
The value was 16%.

And the “% Selectivity” value [2, 6]?
Its value is 23%.

Which results are given for `[C-]#[O+].[C-]#[O+].[C-]#[O+].[C-]#[O+].[C-]#[O+].[C-]#[O+].[C-]#[O+].[C-]#[O+].[Co].[Co]` [Co2 (CO)8]?
% Conversion [2, 7]: 3.5%; % Selectivity [2, 7]: 6.4%

For `Ic1ccccc1` [C6 H5 I], which “% Conversion to Methyl Acetate” value [3, 8] is on record?
Its value is 25%.

What about the “% Selectivity to Methyl Acetate” value [3, 8] of the same compound?
Its value is 52%.

And the methyl acetate produced (head is a drawing) [1, 9]?
Its methyl acetate produced (head is a drawing) is 22.3 mL.

Which “hexene-1 converted to C7 aldehydes and C7 alcohols” value ([4]; 1500 psi, H2 :CO 1:1, 140° C.) does the source give for “tetrakis tetrahydrofuran adduct of a magnesium-dicobalt hexacarbonyl bismethyldiphenylphosphine complex [[C4 H8 O]4 Mg[Co(CO)3 PCH3 (C6 H5)2]2]” here?
Its value is 99%.

And the “reacted product that was an aldehyde” value ([4]; 1500 psi, H2 :CO 1:1, 140° C.)?
Its value is 87%.

What about the “conversion of 1-hexene to heptaldehydes” value ([4]; description) of the same compound?
The value was greater than 99%.

What about the “selectivity in conversion of 1-hexene to heptaldehydes” value ([4]; description) of the same compound?
Its value is 87%.

With `I` [HI, hydrogen iodide] as the compound, how does the “% Conversion to Methyl Acetate” value [3] read?
Its value is 8.

What about the “% Selectivity to Methyl Acetate” value [3] of the same compound?
The value was 47.

What about the methyl acetate produced (head is a drawing) [1, 10] of the same compound?
The methyl acetate produced (head is a drawing) was 6.6 mL.

With `CI` [CH3 I, methyl iodide] as the compound, how does the “% Conversion to Methyl Acetate” value [3, 8] read?
Its value is 24%.

And the “% Selectivity to Methyl Acetate” value [3, 8]?
The value was 85%.

And the “% Conversion to Methyl Acetate” value [3, 11]?
Its value is 29%.

And the “% Selectivity to Methyl Acetate” value [3, 11]?
Its value is 97%.

What about the “% Conversion to Methyl Acetate” value [3, 12] of the same compound?
Its value is 25%.

And the “% Selectivity to Methyl Acetate” value [3, 12]?
The value was 74%.

And the methyl acetate produced (head is a drawing) [1, 9]?
The methyl acetate produced (head is a drawing) was 21.4 mL.

What about the methyl acetate produced (head is a drawing) ([1]; cocatalyst 8.0 mmole, 4000 psi CO, 4 hours) of the same compound?
The methyl acetate produced (head is a drawing) was 29.6 mL.

What about the methyl acetate produced (head is a drawing) ([1]; cocatalyst 16.0 mmole, 4000 psi CO, 4 hours) of the same compound?
Its methyl acetate produced (head is a drawing) is 19.8 mL.

With `CBr` [CH3 Br] as the compound, how does the “promotional effect as cocatalyst” value [3] read?
Its value is “inventive”.

Which results are given for `CCI` [CH3 CH2 I]?
% Conversion to Methyl Acetate [3, 8]: 20%; % Selectivity to Methyl Acetate [3, 8]: 85%; methyl acetate produced (head is a drawing) [1, 9]: 17.5 mL

With `[I-].[Li+]` [LiI] as the compound, how does the “% Conversion to Methyl Acetate” value [3] read?
The value was 0.6.

What about the “% Selectivity to Methyl Acetate” value [3] of the same compound?
The value was 100.

What about the methyl acetate produced (head is a drawing) [1, 10] of the same compound?
The methyl acetate produced (head is a drawing) was 1 mL.

With `O=[C]=[Rh]([Cl])([PH](c1ccccc1)(c1ccccc1)c1ccccc1)[PH](c1ccccc1)(c1ccccc1)c1ccccc1` [((C6 H5)3 P)2 Rh(CO)Cl] as the compound, how does the “(%) n-C4 H8 O (percent straight chain isomer)” value ([5]; 1000 psig CO/H2 50/50) read?
Its value is 56%.

What about the “k (pseudo 1st order reaction rate constant)” value ([5]; 1000 psig CO/H2 50/50) of the same compound?
Its value is 0.0744 min⁻¹.

And the t1/2 ([5]; t1/2 = ln 2/k)?
The t1/2 was 9.32 min.
